Assay results taken from PubChem BioAssay (NCI).
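Exposure lasted 48 hours, with cells grown in 96-well plates and compounds tested at five concentrations. GI50 marks 50% less growth. TGI: concentration producing complete growth inhibition.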

Experiments:
Assay in all cases: NCI anticancer screen, dose series, 48 h
HS 578T breast = tested on: HS 578T breast
UO-31 renal = tested on: UO-31 renal
K-562 leukemia = tested on: K-562 leukemia
ACHN renal = tested on: ACHN renal
HL-60(TB) leukemia = tested on: HL-60(TB) leukemia
NCI/ADR-RES ovarian = tested on: NCI/ADR-RES ovarian
TK-10 renal = tested on: TK-10 renal
UACC-257 melanoma = tested on: UACC-257 melanoma
A498 renal = tested on: A498 renal
SK-OV-3 ovarian = tested on: SK-OV-3 ovarian
MALME-3M melanoma = tested on: MALME-3M melanoma
T-47D breast = tested on: T-47D breast
SNB-75 CNS = tested on: SNB-75 CNS
U251 CNS = tested on: U251 CNS
NCI-H23 lung = tested on: NCI-H23 lung
NCI-H460 lung = tested on: NCI-H460 lung
CAKI-1 renal = tested on: CAKI-1 renal
SNB-19 CNS = tested on: SNB-19 CNS
BT-549 breast = tested on: BT-549 breast
OVCAR-5 ovarian = tested on: OVCAR-5 ovarian
MOLT-4 leukemia = tested on: MOLT-4 leukemia
SK-MEL-5 melanoma = tested on: SK-MEL-5 melanoma
HOP-62 NSCLC = tested on: HOP-62 NSCLC
UACC-62 melanoma = tested on: UACC-62 melanoma
COLO 205 colon = tested on: COLO 205 colon
RXF 393 renal = tested on: RXF 393 renal
NCI-H226 lung = tested on: NCI-H226 lung
LOX IMVI melanoma = tested on: LOX IMVI melanoma
NCI-H522 lung = tested on: NCI-H522 lung
SR leukemia = tested on: SR leukemia
EKVX NSCLC = tested on: EKVX NSCLC
RPMI-8226 leukemia = tested on: RPMI-8226 leukemia
SN12C renal = tested on: SN12C renal
HCC-2998 colon = tested on: HCC-2998 colon
IGROV1 ovarian = tested on: IGROV1 ovarian
OVCAR-8 ovarian = tested on: OVCAR-8 ovarian
OVCAR-3 ovarian = tested on: OVCAR-3 ovarian
SF-268 CNS = tested on: SF-268 CNS
PC-3 prostate = tested on: PC-3 prostate
HT29 colon = tested on: HT29 colon
786-0 renal = tested on: 786-0 renal
M14 melanoma = tested on: M14 melanoma
SF-295 CNS = tested on: SF-295 CNS
MDA-MB-231 breast = tested on: MDA-MB-231 breast
SW-620 colon = tested on: SW-620 colon
SF-539 CNS = tested on: SF-539 CNS
OVCAR-4 ovarian = tested on: OVCAR-4 ovarian
HCT-116 colon = tested on: HCT-116 colon
SK-MEL-2 melanoma = tested on: SK-MEL-2 melanoma
MCF7 breast = tested on: MCF7 breast
HCT-15 colon = tested on: HCT-15 colon
DU-145 prostate = tested on: DU-145 prostate
MDA-MB-435 = tested on: MDA-MB-435
HOP-92 NSCLC = tested on: HOP-92 NSCLC
SK-MEL-28 melanoma = tested on: SK-MEL-28 melanoma
A549 NSCLC = tested on: A549 NSCLC
CCRF-CEM leukemia = tested on: CCRF-CEM leukemia

In the case of NC(N)=Nc1ccc(Nc2cccc(Nc3ccc(Cl)c(C(F)(F)F)c3)c2)cn1, the GI50 (HS 578T breast) is reported as 2.04 µM, the TGI (HS 578T breast) is reported as 4.94 µM and the GI50 (UO-31 renal) is reported as 4.33 µM. It also gave a TGI (UO-31 renal) of 38.3 µM, a GI50 (K-562 leukemia) of 2.54 µM and a TGI (K-562 leukemia) of over 100 µM. The GI50 (ACHN renal) was 3.58 µM, the TGI (ACHN renal) was 17.5 µM and the GI50 (HL-60(TB) leukemia) was 2.31 µM. For the same compound, the TGI (HL-60(TB) leukemia) was 5.74 µM, the GI50 (NCI/ADR-RES ovarian) was 21.6 µM and the TGI (NCI/ADR-RES ovarian) was 93.4 µM. It also gave a GI50 (TK-10 renal) of 2.77 µM, a TGI (TK-10 renal) of 7.58 µM and a GI50 (UACC-257 melanoma) of 2.39 µM. The TGI (UACC-257 melanoma) was 6.53 µM, the GI50 (A498 renal) was 1.69 µM and the TGI (A498 renal) was 4.72 µM. It also gave a GI50 (SK-OV-3 ovarian) of 2.81 µM, a TGI (SK-OV-3 ovarian) of 6.91 µM and a GI50 (MALME-3M melanoma) of 2.01 µM. It also gave a TGI (MALME-3M melanoma) of 5.36 µM, a GI50 (T-47D breast) of 1.85 µM and a TGI (T-47D breast) of 4.87 µM.
With C=C1C(=O)O[C@@H]2C[C@@H](C)/C=C\C(=O)[C@](C)(OC(C)=O)C[C@H](OC(=O)/C(C)=C\C)[C@@H]12 the GI50 (HS 578T breast) was 12.3 µM, the TGI (HS 578T breast) was over 25 µM and the GI50 (SNB-75 CNS) was 4.07 µM. The TGI (SNB-75 CNS) was 17.6 µM, the GI50 (U251 CNS) was 3.7 µM and the TGI (U251 CNS) was 8.64 µM. It also gave a GI50 (NCI-H23 lung) of 1.21 µM, a TGI (NCI-H23 lung) of 5.95 µM and a GI50 (NCI-H460 lung) of 7.02 µM. It also gave a TGI (NCI-H460 lung) of 23.6 µM, a GI50 (CAKI-1 renal) of 1.09 µM and a TGI (CAKI-1 renal) of 3.97 µM. The GI50 (SNB-19 CNS) was 11.5 µM, the TGI (SNB-19 CNS) was over 25 µM and the GI50 (BT-549 breast) was 3.02 µM. The TGI (BT-549 breast) was 6.31 µM, the GI50 (OVCAR-5 ovarian) was 2.53 µM and the TGI (OVCAR-5 ovarian) was 5.97 µM. The GI50 (MOLT-4 leukemia) was 0.896 µM, the TGI (MOLT-4 leukemia) was 4.25 µM and the GI50 (UO-31 renal) was 2.91 µM. It also gave a TGI (UO-31 renal) of 6 µM, a GI50 (SK-MEL-5 melanoma) of 3.7 µM and a TGI (SK-MEL-5 melanoma) of 7.25 µM. For the same compound, the GI50 (HOP-62 NSCLC) was 7.2 µM, the TGI (HOP-62 NSCLC) was 20.7 µM and the GI50 (UACC-62 melanoma) was 1.55 µM. The TGI (UACC-62 melanoma) was 5.93 µM, the GI50 (COLO 205 colon) was 0.75 µM and the TGI (COLO 205 colon) was 2.6 µM. For the same compound, the GI50 (RXF 393 renal) was 0.683 µM, the TGI (RXF 393 renal) was 1.87 µM and the GI50 (K-562 leukemia) was 0.978 µM. The TGI (K-562 leukemia) was over 25 µM, the GI50 (NCI-H226 lung) was 3.48 µM and the TGI (NCI-H226 lung) was 6.83 µM. The GI50 (LOX IMVI melanoma) was 2.88 µM, the TGI (LOX IMVI melanoma) was 6.18 µM and the GI50 (ACHN renal) was 0.466 µM. The TGI (ACHN renal) was 0.885 µM, the GI50 (NCI-H522 lung) was 0.508 µM and the TGI (NCI-H522 lung) was 1.22 µM. The GI50 (SR leukemia) was 0.845 µM, the TGI (SR leukemia) was 5.2 µM and the GI50 (EKVX NSCLC) was 2.63 µM. For the same compound, the TGI (EKVX NSCLC) was 6.27 µM, the GI50 (RPMI-8226 leukemia) was 0.893 µM and the TGI (RPMI-8226 leukemia) was 2.94 µM. For the same compound, the GI50 (SN12C renal) was 5.73 µM, the TGI (SN12C renal) was over 25 µM and the GI50 (HL-60(TB) leukemia) was 1 µM. The TGI (HL-60(TB) leukemia) was 5.75 µM, the GI50 (HCC-2998 colon) was 4.14 µM and the TGI (HCC-2998 colon) was 8.31 µM. For the same compound, the GI50 (IGROV1 ovarian) was 4.31 µM, the TGI (IGROV1 ovarian) was 9.91 µM and the GI50 (NCI/ADR-RES ovarian) was 2.8 µM. The TGI (NCI/ADR-RES ovarian) was over 25 µM, the GI50 (TK-10 renal) was 0.996 µM and the TGI (TK-10 renal) was 3.32 µM. It also gave a GI50 (OVCAR-8 ovarian) of 1.11 µM, a TGI (OVCAR-8 ovarian) of 23.9 µM and a GI50 (OVCAR-3 ovarian) of 0.94 µM. The TGI (OVCAR-3 ovarian) was 3.2 µM, the GI50 (SF-268 CNS) was 5.38 µM and the TGI (SF-268 CNS) was 20.8 µM. For the same compound, the GI50 (UACC-257 melanoma) was 2.66 µM, the TGI (UACC-257 melanoma) was 6.77 µM and the GI50 (PC-3 prostate) was 4.77 µM. It also gave a TGI (PC-3 prostate) of 13.7 µM, a GI50 (HT29 colon) of 1.06 µM and a TGI (HT29 colon) of 4 µM. It also gave a GI50 (A498 renal) of 6.15 µM, a TGI (A498 renal) of 13.5 µM and a GI50 (786-0 renal) of 2.66 µM. It also gave a TGI (786-0 renal) of 5.93 µM, a GI50 (SK-OV-3 ovarian) of 11.1 µM and a TGI (SK-OV-3 ovarian) of over 25 µM. It also gave a GI50 (M14 melanoma) of 3.69 µM, a TGI (M14 melanoma) of 11 µM and a GI50 (SF-295 CNS) of 7.73 µM. It also gave a TGI (SF-295 CNS) of 20.2 µM, a GI50 (MDA-MB-231 breast) of 1.7 µM and a TGI (MDA-MB-231 breast) of 5.89 µM. For the same compound, the GI50 (SW-620 colon) was 1.01 µM, the TGI (SW-620 colon) was 3.54 µM and the GI50 (SF-539 CNS) was 3.19 µM. It also gave a TGI (SF-539 CNS) of 6.52 µM, a GI50 (OVCAR-4 ovarian) of 1.58 µM and a TGI (OVCAR-4 ovarian) of 8.48 µM. For the same compound, the GI50 (HCT-116 colon) was 0.835 µM, the TGI (HCT-116 colon) was 3.13 µM and the GI50 (SK-MEL-2 melanoma) was 4.45 µM. The TGI (SK-MEL-2 melanoma) was 12.1 µM, the GI50 (MCF7 breast) was 0.971 µM and the TGI (MCF7 breast) was 5.6 µM. The GI50 (HCT-15 colon) was 0.675 µM, the TGI (HCT-15 colon) was 2.13 µM and the GI50 (DU-145 prostate) was 2.52 µM. For the same compound, the TGI (DU-145 prostate) was 6.12 µM, the GI50 (MDA-MB-435) was 3.91 µM and the TGI (MDA-MB-435) was 12.4 µM. The GI50 (HOP-92 NSCLC) was 3.74 µM, the TGI (HOP-92 NSCLC) was 8.05 µM and the GI50 (SK-MEL-28 melanoma) was 1.81 µM. For the same compound, the TGI (SK-MEL-28 melanoma) was 5.49 µM, the GI50 (A549 NSCLC) was 7.78 µM and the TGI (A549 NSCLC) was 24.2 µM. For the same compound, the GI50 (MALME-3M melanoma) was 1.1 µM, the TGI (MALME-3M melanoma) was 5.11 µM and the GI50 (CCRF-CEM leukemia) was 0.834 µM. It also gave a TGI (CCRF-CEM leukemia) of 4.41 µM.
